Legend:
[1] = biological target: T1, p38a (MAPK14) (Homo sapiens, UniProt Q16539); assay: Single-cell p38a activity reporter assay (RPE1-p38 KTR); assay type: cell-based; conditions: 1 μM, confirmed at 10 μM; 48 hours; RPE1 cells
T1 construct: tested for their influence on p38a activity using the RPE1-p38 kinase translocation reporter (KTR) line; endogenous in cells; host or cells: RPE1-p38KTR cells
Description: Cell Painting profiles for two wild-type variants of p38a (MAPK14) were averaged to create a p38a Cell Painting profile. 20 compounds whose Cell Painting profile correlated positively or negatively to that of p38a overexpression were selected in addition to 14 “non-correlated compounds” defined as having an absolute value of correlation of less than 0.2 as negative/neutral controls. The compounds were tested for their influence on p38a activity using the RPE1-p38 kinase translocation reporter (KTR) line that was previously generated. This cell line has been tested and confirmed to be negative for mycoplasma contamination, but not necessarily authenticated. P38 activity is measured by phosphorylation of its substrate, MEF2C, which is preferentially phosphorylated by p38 α, while p380 and p386 contribute less. RPE1-p38KTR cells were cultured in DMEM/F12 medium supplemented with 10% Fetal Bovine Serum at 37C in a humidified atmosphere with 5% CO2. 1000 cells were plated in 96-well plates and treated with 1p M or 10 μM of each compound (n=4 per concentration per compound, no replicates) for 48 hours. Only the middle 60 wells were used to prevent potential confounds from the edge effect. Cells were then fixed in 4% paraformaldehyde for 10 min, followed by permeabilization in cold methanol at −20C for 5 min. Cells were stained with 0.4 μg/mL Alexa Fluor 647 carboxylic acid, succinimidyl ester for 2 hr at RT, followed by 1 μg/mL DAPI for 10 min at RT to facilitate the segmentation of individual cells. p38a activity in single cells was calculated using the ratio of the median intensity of the p38-KTR in a 5-pixel-wide cytoplasmic ring around the nucleus to the median intensity of the p38-KTR in the nucleus. p38a activity measurements were normalized to DMSO conditions within the same plate. The Student's t-test Kolomogorov-Smirnov (KS) test was used to assess the score and significance of the single cell distributions of p38a activity for each compound relative to control. […] When reporting hits from this assay, KS test and t-test p-values were adjusted to control the false discovery rate using the Benjamini-Hochberg method, using the p.adjust method=‘BH” in R.

[2] = tested on: rat cortical neurons; assay: TMRE staining (mitochondrial membrane potential) in rat cortical neurons; assay type: cell-based; conditions: 10 μM
Description: High content mitochondrial motility screen: Mitochondrial motility was measured as described in Shlevkov, E. et al., Cell Rep. […] Briefly, we plated E18 rat cortical neurons in the middle 60 wells of 96 well plates (Greiner)—40,000 cells per well in 150 μl enriched Neurobasal media. Neurons were transfected with mito-DsRed at DIV7 using Lipofectamine2000 (Life Technologies). […] At DIV9, test compounds were added into wells to achieve a final concentration of 10 μM each (4 wells per compound), as well at 10 μM calcimycin for neg. control, and DMSO only for mock treatment. Following a 1-2 hour incubation, plates were imaged on a ArrayScan XTI (Thermo Fisher). Mitochondrial motility data was extrapolated from imaging data using a MATLAB and CellProfiler based computational pipeline. […] The experiment was repeated twice in different weeks. In the second week, TMRE was added to all wells after imaging was completed (20 min, then 2 washes) and imaged to measure mitochondrial membrane potential in order to determine mitochondrial and cell health.

[3] = tested on: PPARG; assay: PPARG reporter gene assay (FABP4-NanoLuc, RT112/84 bladder cancer cell line); assay type: cell-based; conditions: absence or presence of Rosiglitazone
Description: These NanoLuc gene cloned RT112/84 cells were plated in 384-well plates at ˜10,000 cells/well. Cells were dosed with indicated compounds in the absence or presence of EC50 of PPARG agonist, rosiglitazone, using an HP D300 digital dispenser. The following day nuclei were counted for normalization (IncuCyte S3, Essen Bioscience) and the reporter activity was evaluated using the NanoGlo Luciferase Assay System (Promega). Normalized data is reported as NanoGlo arbitrary light units divided by cell number. PPARG agonist, rosiglitazone, and inhibitor, T0070907, were obtained from Tocris and included as controls.

[4] = tested on: U2OS cells; assay: Cell count in U2OS Cell Painting images; assay type: cell-based, human; conditions: U2OS Cell Painting
Source text: (§1) Of these, analysis of the 220 constructs that were most closely representative of the annotated full-length transcripts was prioritized. […] Not all genes are likely to impact cellular morphology given the limitation of the experiment; using a single cell line at a single time point under a single set of conditions and stained with six fluorescent labels.
(§2) This standardization was done plate wise, based on the mean and standard deviation of the controls at profile level for the compound dataset. […] The signatures were then obtained by averaging the replicate profiles feature-wise. Pearson correlation was used on the aligned signatures of a gene and compound to score their connection.

[5] = tested on: TRAF2 overexpression in U2OS cells; assay: Cell Painting morphological profile matching to TRAF2 overexpression; assay type: cell-based, human; conditions: Pearson correlation of Cell Painting signatures, U2OS cells
Source text: as §1, §2

[6] = tested on: YAP1 overexpression in U2OS cells; assay: Cell Painting morphological profile matching to YAP1/TAZ overexpression signature; assay type: cell-based, human; conditions: Pearson correlation of Cell Painting signatures, U2OS cells
Source text: as §1
FIG. 2 provides an example characterization of matching the morphological signature of a gene query to the signature(s) of compounds in a library. Connections which show both positive and negative large correlations are considered as matches.
as §2

T1 sequence (Q16539 whole entry): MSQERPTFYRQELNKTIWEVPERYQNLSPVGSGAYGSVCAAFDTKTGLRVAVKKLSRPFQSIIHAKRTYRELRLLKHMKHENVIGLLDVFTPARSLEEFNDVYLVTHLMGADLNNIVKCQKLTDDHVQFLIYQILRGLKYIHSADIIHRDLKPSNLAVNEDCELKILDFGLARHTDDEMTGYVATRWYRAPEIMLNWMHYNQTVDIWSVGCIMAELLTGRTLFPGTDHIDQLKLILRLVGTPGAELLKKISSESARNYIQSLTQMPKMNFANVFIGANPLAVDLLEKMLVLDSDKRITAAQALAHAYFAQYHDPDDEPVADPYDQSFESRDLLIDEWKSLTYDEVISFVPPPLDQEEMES

With Nc1nc(Nc2ccccc2)nc2c1ncn2C1OC(CO)C(O)C1O (stereo not shown) [BRD-A64933752, 2-(6-amino-2-anilinopurin-9-yl)-5-(hydroxymethyl)oxolane-3,4-diol] the p38a activity [1] was “potential inhibitors”.

With CC(C)(C)n1nc(-c2cccc3ccccc23)c2c(N)ncnc21 [BRD-K29542628, 1-(tert-Butyl)-3-(naphthalen-1-yl)-1H-pyrazolo[3,4-d]pyrimidin-4-amine] the “TMRE staining (mitochondrial membrane potential)” value (from here on “TMRE staining”) [2] was “normal levels of TMRE staining” and the PPARG reporter activity [3] was “active in the PPARG reporter assay”.

In the case of CCCCNc1cc(C(=O)O)cc(S(N)(=O)=O)c1Oc1ccccc1 [BRD-K38197229, 3-(butylamino)-4-phenoxy-5-sulfamoylbenzoic acid], the p38a activity [1] is reported as “potential inhibitors”.

In the case of COC1(C[S@@+]([O-])c2ccccc2)CCN(CCc2c[nH]c3ccc(F)cc23)CC1 [BRD-K52394958, 5-Fluoro-3-[2-[4-methoxy-4-[[(R)-phenylsulfinyl]methyl]piperidin-1-yl]ethyl]-1H-indole], the p38a activity [1] is reported as “identified via an alternative statistical test”.

CCc1cc(-c2n[nH]c(C)c2-c2ccc3c(c2)OCCO3)c(O)cc1O [BRD-K65503129, 4-[4-(2,3-dihydro-1,4-benzodioxin-6-yl)-5-methyl-1H-pyrazol-3-yl]-6-ethylbenzene-1,3-diol] was tested, and the PPARG reporter activity ([3]; listed as B09) was “active in the PPARG reporter assay” and the PPARG reporter activity ([3]; listed as CCT018159) was “inhibited reporter activity”.

In the case of COC(=O)C[C@H]1C[C@H]2c3cc(NS(=O)(=O)c4cccc(OC)c4)ccc3O[C@H]2[C@@H](CO)O1 [BRD-K68530167, 2-[(1R,3R,4aS,9aR)-1-(hydroxymethyl)-6-[(3-methoxyphenyl)sulfonylamino]-3,4,4a,9a-tetrahydro-1H-pyrano[3,4-b]benzofuran-3-yl]acetic acid methyl ester], the “Avg. Cell Count z-score” value [4] is reported as −0.1411, the “Corr. to TRAF2” value [5] is reported as −0.4619 and the “Corr. to YAP1 cluster” value [6] is reported as 0.494.

With CCCCCCCCCCCCCC(=O)O[C@@H]1[C@@H](C)[C@@]2(O)[C@@H](C=C(CO)C[C@]3(O)C(=O)C(C)=C[C@@H]23)[C@@H]2C(C)(C)[C@]12OC(C)=O [BRD-K68552125, 12-O-Tetradecanoylphorbol-13-acetate] the “TMRE staining” value [2] was “normal levels of TMRE staining”, the PPARG reporter activity ([3]; listed as A06) was “active in the PPARG reporter assay” and the PPARG reporter activity ([3]; listed as Phorbol 12-myristate 13-acetate) was “inhibited reporter activity”.

For COc1cccc(S(=O)(=O)N2C[C@H](O)COC[C@@H]3O[C@H](CC(=O)N4CCN(c5ccccc5)CC4)CC[C@H]32)c1 [BRD-K70003473, 2-[(3S,6aR,8S,10aR)-3-hydroxy-1-(3-methoxyphenyl)sulfonyl-3,4,6,6a,8,9,10,10a-octahydro-2H-pyrano[2,3-c][1,5]oxazocin-8-yl]-1-(4-phenyl-1-piperazinyl)ethanone], the “Avg. Cell Count z-score” value [4] was 0.5728, the “Corr. to TRAF2” value [5] was 0.3099 and the “Corr. to YAP1 cluster” value [6] was −0.4195.

O=c1[nH]ccc2c(S(=O)(=O)N3CCCNCC3)cccc12 [BRD-K77793136, 5-(1,4-diazepan-1-ylsulfonyl)-2H-isoquinolin-1-one] was tested, and the “Avg. Cell Count z-score” value [4] was −1.055, the “Corr. to TRAF2” value [5] was −0.4667 and the “Corr. to YAP1 cluster” value [6] was 0.4458.

CCc1nc(N)nc(N)c1-c1ccc(Cl)cc1 [BRD-K88429204, 5-(4-chlorophenyl)-6-ethylpyrimidine-2,4-diamine] was tested, and the “Avg. Cell Count z-score” value [4] was −0.2165, the “Corr. to TRAF2” value [5] was −0.3496 and the “Corr. to YAP1 cluster” value [6] was 0.4503.

In the case of CC(C)(C)n1nc(-c2ccc(Cl)cc2)c2c(N)ncnc21 [BRD-K95785537, 1-(tert-butyl)-3-(4-chlorophenyl)-1H-pyrazolo[3,4-d]pyrimidin-4-amine], the “TMRE staining” value [2] is reported as “normal levels of TMRE staining”.

C[C@@H]1CN([C@H](C)CO)C(=O)CCCn2cc(nn2)CO[C@@H]1CN(C)S(=O)(=O)c1ccc(Oc2ccccc2)cc1 [BRD-K96698997, N-[[(8R,9S)-6-[(2R)-1-hydroxypropan-2-yl]-8-methyl-5-oxo-10-oxa-1,6,13,14-tetrazabicyclo[10.2.1]pentadeca-12(15),13-dien-9-yl]methyl]-N-methyl-4-phenoxybenzenesulfonamide] was tested, and the “Avg. Cell Count z-score” value [4] was −1.099, the “Corr. to TRAF2” value [5] was 0.4834 and the “Corr. to YAP1 cluster” value [6] was −0.4518.

With Cc1ccc(-c2nn(C(C)(C)C)c3ncnc(N)c23)cc1 [PP1, reference compound] the PPARG reporter activity [3] was “reporter activation”.

For Oc1ccc(-c2nc(-c3ccc(F)cc3)c(-c3ccncc3)[nH]2)cc1 [SB202190, 4-(4-(4-fluorophenyl)-5-(pyridin-4-yl)-1H-imidazol-2-yl)phenol, reference compound], the p38a activity [1] was “suppressed p38a activity”.
